One molecule from patent US10464912B2, “Choline cocrystal of epalrestat” (BIONEVIA PHARMACEUTICALS, INC., priority 2008, dated 2019) can be followed below.

For this data set the following is noted: ambient temperature, after approximately 24 hours, FIG. 6A.

Method: Samples were taken at approximately 1, 3, 6, and 24 hours, and analyzed by UV spectrophotometry using a SpectraMax M2 UV-VIS spectrophotometer. Wavelength calibration and photometric accuracy were performed using the SpectraMax Pro 5 software as an internal calibration of the instrument. The detector was zeroed with a reference well on a microplate filled with water on which data were obtained, and those data were subtracted from collected data. Samples were analyzed in the UV range at room temperature in the wells of a 96-well quartz plate.

On to `CC(/C=C1\SC(=S)N(CC(=O)O)C1=O)=C\c1ccccc1` [choline hydrogen diepalrestat], for which the “dissolved concentration of epalrestat (solubility in water)” value turned out to be 249 µg/mL.
